As usually defined, the EC50 is the concentration at which the effect is half-maximal. Broadly, the melting point is the temperature, or range, at which the solid turns liquid.

One data set concerns IL-2. Kind of data set: IL-2 production by T cells (anti-CD3 stimulated, ELISA). Format: cell-based. As to conditions: T-cell, one collective range stated for the tested compounds, read-out: EC50 values for stimulating the production of IL-2. As to the method: 5.48.2 […] and MIP-3α Production by T Cells
PBMC are depleted of adherent monocytes by placing 1×10^8 PBMC in 10 ml complete medium (RPMI 1640 supplemented with 10% heat-inactivated fetal bovine serum, 2 mM L-glutamine, 100 U/ml penicillin, and 100 μg/ml streptomycin) per 10 cm tissue culture dish, in 37° C., 5% CO2 incubator for 30-60 minutes. The dish is rinsed with medium to remove all non-adherent PBMC. T cells are purified by negative selection using the following antibody (Pharmingen) and Dynabead (Dynal) mixture for every 1×10^8 non-adherent PBMC: 0.3 ml Sheep anti-mouse IgG beads, 15 μl anti-CD16, 15 μl anti-CD33, 15 μl anti-CD56, 0.23 ml anti-CD19 beads, 0.23 ml anti-HLA class II beads, and 56 μl anti-CD14 beads. The cells and bead/antibody mixture is rotated end-over-end for 30-60 minutes at 4° C. Purified T cells are removed from beads using a Dynal magnet. Typical yield is about 50% T cells, 87-95% CD3^+ by flow cytometry.
Tissue culture 96-well flat-bottom plates are coated with anti-CD3 antibody OKT3 at 5 μg/ml in PBS, 100 μl per well, incubated at 37° C. for 3-6 hours, then washed four times with complete medium 100 μl/well just before T cells are added. Compounds are diluted to 20 times of final in a round bottom tissue culture 96-well plate. Final concentrations are about 10 μM to about 0.00064 μM. A 10 mM stock of compounds provided herein is diluted 1:50 in complete for the first 20× dilution of 200 μM in 2% DMSO and serially diluted 1:5 into 2% DMSO. Compound is added at 10 μl per 200 μl culture, to give a final DMSO concentration of 0.1%. Cultures are incubated at 37° C., 5% CO2 for 2-3 days, and supernatants analyzed for IL-2 and MIP-3α by ELISA (R&D Systems). IL-2 and MIP-3 cc levels are normalized to the amount produced in the presence of an amount of a compound provided herein, and EC50s calculated using non-linear regression, sigmoidal dose-response, constraining the top to 100% and bottom to 0%, allowing variable slope (GraphPad Prism v3.02).
Abilities of certain compounds for stimulating the production of IL-2 were determined using procedures substantially similar to those described in Section 5.48.2, above.
For orientation: In an ELISA, binding on a coated surface is turned into a signal by an enzyme label.

The test system of the next data set is Namalwa AG4 cells. Kind of data set: Cell proliferation assay (3H-thymidine incorporation). In kind it is cell-based. To be noted: one collective range stated for the tested compounds, read-out: IC50 values for inhibiting proliferation of Namalwa AG4 cells. The protocol:
5.48.3 Cell Proliferation Assay
Cell lines Namalwa, MUTZ-5, and UT-7 are obtained from the Deutsche Sammlung von Mikroorganismen und Zellkulturen GmbH (Braunschweig, Germany). The cell line KG-1 is obtained from the American Type Culture Collection (Manassas, Va., USA). Cell proliferation as indicated by ^3H-thymidine incorporation is measured in all cell lines as follows.
Cells are plated in 96-well plates at 6000 cells per well in media. The cells are pre-treated with compounds at about 100, 10, 1, 0.1, 0.01, 0.001, 0.0001 and 0 μM in a final concentration of about 0.25% DMSO in triplicate at 37° C. in a humidified incubator at 5% CO2 for 72 hours. One microcurie of 3H-thymidine (Amersham) is then added to each well, and cells are incubated again at 37° C. in a humidified incubator at 5% CO2 for 6 hours. The cells are harvested onto UniFilter GF/C filter plates (Perkin Elmer) using a cell harvester (Tomtec), and the plates are allowed to dry overnight. Microscint 20 (Packard) (25 μl/well) is added, and plates are analyzed in TopCount NXT (Packard). Each well is counted for one minute. Percent inhibition of cell proliferation is calculated by averaging all triplicates and normalizing to the DMSO control (0% inhibition). Each compound is tested in each cell line in three separate experiments. Final IC50s are calculated using non-linear regression, sigmoidal dose-response, constraining the top to 100% and bottom to 0%, allowing variable slope. (GraphPad Prism v3.02).
Abilities of certain compounds for inhibiting proliferation of Namalwa AG4 cells were determined using procedures substantially similar to those described in Section 5.48.3, above.
A general note: Dividing cells build labelled thymidine or BrdU into new DNA.

As for `Cc1nc2ccc(N)cc2c(=O)n1C1CCC(=O)NC1=O` (stereo not drawn) [3-(6-amino-2-methyl-4-oxo-4H-quinazolin-3-yl)-piperidine-2,6-dione], the EC50 with IL-2 was 100 to 3500 nM. The IC50 with Namalwa AG4 cells was in the range of 10 to 5500 nM.
Compound `Cc1nc2ccc(CNC(=O)Nc3ccc(OC(F)(F)F)cc3)cc2c(=O)n1C1CCC(=O)NC1=O` (stereo not drawn) [1-[3-(2,6-dioxo-piperidin-3-yl)-2-methyl-4-oxo-3,4-dihydro-quinazolin-6-ylmethyl]-3-(4-trifluoromethoxy-phenyl)-urea] displayed a melting point of 201 to 203 °C. Also, in the data set on IL-2, the half-maximal effective concentration (EC50) was 100 to 3500 nM. In the data set with Namalwa AG4 cells, the IC50 is 10 to 5500 nM.
In the case of `Cc1nc2ccc(O)cc2c(=O)n1C1CCC(=O)NC1=O` (stereo not drawn) [3-(6-hydroxy-2-methyl-4-oxo-4H-quinazolin-3-yl)-piperidine-2,6-dione], the melting point lay in the range of 315 to 317 °C. For the same compound, the EC50 in the data set on IL-2 fell in the range of 100 to 3500 nM.
Compound `Cc1nc2ccc(CNC(=O)c3ccc(C(F)(F)F)cc3)cc2c(=O)n1C1CCC(=O)NC1=O` (stereo not drawn) [N-[3-(2,6-dioxo-piperidin-3-yl)-2-methyl-4-oxo-3,4-dihydro-quinazolin-6-ylmethyl]-4-trifluoromethyl-benzamide] returned a melting point of 221 to 223 °C. Besides, in the data set on Namalwa AG4 cells, the IC50 was 10 to 5500 nM.
The compound `CCCCCCNC(=O)NCc1ccc2nc(C)n(C3CCC(=O)NC3=O)c(=O)c2c1` (stereo not drawn) [1-[3-(2,6-dioxo-piperidin-3-yl)-2-methyl-4-oxo-3,4-dihydro-quinazolin-6-ylmethyl]-3-hexyl-urea] had a melting point of 220 to 222 °C. Further, the EC50 in the data set with IL-2 was in the range of 100 to 3500 nM. Moreover, in the data set on Namalwa AG4 cells, the IC50 fell in the range of 10 to 5500 nM.
The compound `Cc1ccc(NC(=O)NCc2ccc3nc(C)n(C4CCC(=O)NC4=O)c(=O)c3c2)cc1Cl` (stereo not drawn) [1-(3-chloro-4-methyl-phenyl)-3-[3-(2,6-dioxo-piperidin-3-yl)-2-methyl-4-oxo-3,4-dihydro-quinazolin-6-ylmethyl]-urea] yielded a melting point of 186 to 188 °C. The IC50 in the data set on Namalwa AG4 cells lay within 10 to 5500 nM.
For `Cc1nc2ccc(CNC(=O)c3ccc(SC(F)(F)F)cc3)cc2c(=O)n1C1CCC(=O)NC1=O` (stereo not drawn) [N-[3-(2,6-dioxo-piperidin-3-yl)-2-methyl-4-oxo-3,4-dihydro-quinazolin-6-ylmethyl]-4-trifluoromethyl-sulfanyl-benzamide] the same measures were 169 to 171 °C and 10 to 5500 nM.
For `Cc1nc2ccc(CNC(=O)c3ccc(OC(F)(F)F)cc3)cc2c(=O)n1C1CCC(=O)NC1=O` (stereo not drawn) [N-[3-(2,6-dioxo-piperidin-3-yl)-2-methyl-4-oxo-3,4-dihydro-quinazolin-6-ylmethyl]-4-trifluoromethoxy-benzamide] the same measures were 165 to 167 °C and 10 to 5500 nM.
Consider `Cc1nc2cc(F)ccc2c(=O)n1C1CCC(=O)NC1=O` (stereo not drawn) [3-(7-fluoro-2-methyl-4-oxo-4H-quinazolin-3-yl)-piperidine-2,6-dione], for which the melting point lay within 243 to 245 °C. Further, in the data set on IL-2, the EC50 lay in the range of 100 to 3500 nM. In addition, in the data set on Namalwa AG4 cells, the IC50 fell in the range of 10 to 5500 nM.
For `Cc1nc2cc(Cl)ccc2c(=O)n1C1CCC(=O)NC1=O` (stereo not drawn) [3-(7-chloro-2-methyl-4-oxo-4H-quinazolin-3-yl)-piperidine-2,6-dione] the same measures were 291 to 293 °C, 100 to 3500 nM and 10 to 5500 nM.
Turning to `Cc1nc2cc(Br)ccc2c(=O)n1C1CCC(=O)NC1=O` (stereo not drawn) [3-(7-bromo-2-methyl-4-oxo-4H-quinazolin-3-yl)-piperidine-2,6-dione], in the data set on IL-2, the EC50 fell in the range of 100 to 3500 nM. In the data set on Namalwa AG4 cells, the IC50 lay within 10 to 5500 nM.
`CCCCCCC(=O)NCc1ccc2nc(C)n(C3CCC(=O)NC3=O)c(=O)c2c1` (stereo not drawn) [heptanoic acid [3-(2,6-dioxo-piperidin-3-yl)-2-methyl-4-oxo-3,4-dihydro-quinazolin-6-ylmethyl]-amide] yielded a melting point of 223 to 225 °C. Also, in the data set on Namalwa AG4 cells, the IC50 lay in the range of 10 to 5500 nM.
Consider `Cc1nc2cc(N)ccc2c(=O)n1C1CCC(=O)NC1=O` (stereo not drawn) [3-(7-amino-2-methyl-4-oxo-4H-quinazolin-3-yl)-piperidine-2,6-dione], for which the EC50 in the data set on IL-2 fell in the range of 100 to 3500 nM. Further, the IC50 with Namalwa AG4 cells fell in the range of 10 to 5500 nM.
